{"source": "paper PMC8387526", "about": "“Small peptide-based GLP-1R ligands: an approach to reduce the kidney uptake of radiolabeled GLP-1R-targeting agents?” (EJNMMI Radiopharmacy and Chemistry, 2021)", "key": {"[1]": {"target": "T1, human GLP-1 receptor (Homo sapiens, UniProt P43220)", "T1 sequence (P43220 24-463)": "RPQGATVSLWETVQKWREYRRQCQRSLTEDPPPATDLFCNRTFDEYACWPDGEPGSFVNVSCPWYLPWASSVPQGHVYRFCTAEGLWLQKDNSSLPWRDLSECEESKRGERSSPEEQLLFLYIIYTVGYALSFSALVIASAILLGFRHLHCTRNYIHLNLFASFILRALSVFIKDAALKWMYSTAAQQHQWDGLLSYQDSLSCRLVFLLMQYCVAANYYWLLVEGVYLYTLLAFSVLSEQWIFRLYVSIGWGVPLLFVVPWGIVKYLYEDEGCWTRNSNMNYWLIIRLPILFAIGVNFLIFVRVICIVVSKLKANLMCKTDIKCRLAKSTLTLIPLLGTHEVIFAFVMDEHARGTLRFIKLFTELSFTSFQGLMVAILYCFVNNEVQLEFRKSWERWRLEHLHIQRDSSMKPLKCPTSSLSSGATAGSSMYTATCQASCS", "parameters": "Dr. Timothy Kieffer (University of British Columbia); method as in Mapelli et al., 2009; Haque et al., 2010a", "conditions": "CHO cells stably overexpressing the human GLP-1 receptor; ref Mapelli et al., 2009; Haque et al., 2010a; read-out: EC50 (cAMP production); cited from earlier work"}, "[2]": {"target": "T1, human GLP-1 receptor", "experiment": "Competitive binding (IC50) on HEK293-hGLP-1R cells with radioligand [Nle^14, [^125I]Tyr(3-I)^40]exendin-4", "parameters": "Dr. Timothy Kieffer (University of British Columbia); host or cells: HEK293", "conditions": "w/ BSA (1% BSA); HEK293-hGLP-1R cells, 4 °C, 2 h, 0.41 nM radioligand; read-out: IC50 ± SD", "experimental": "Dr. Timothy Kieffer (University of British Columbia, Vancouver, Canada). Cells were cultivated in high glucose DMEM (25.0 mM D-glucose, 3.97 mM GlutaMAX; REF-number: 61965–026; Fisher Scientific GmbH, Schwerte, Germany) supplemented with 10% fetal bovine serum and 1 mM sodium pyruvate. Medium for stably transfected HEK293-hGLP-1R cells was constantly supplemented with 1 mg/mL Geneticin (G-418 Biochrom, Merck KgaA, Darmstadt, Germany) as selection antibiotic. The cell line was kept at 37 °C in a humidified 5% CO2 atmosphere. One day (24 ± 2 h) prior to all in vitro experiments, the cultivated HEK293-h-GLP-1R cells were harvested using a mixture of trypsin/ethylenediaminetetraacetic acid (0.05%/0.02%) in phosphate-buffered saline (PBS) (Gibco, Germany) and centrifuged at 1300 rpm (ca. 190×g) for 3 min at room temperature (Heraeus Megafuge 16, Thermo Fisher, Germany). After centrifugation, the supernatant was disposed and the cell pellet was resuspended in culture medium. Cells were counted with a Neubauer hemocytometer (Paul Marienfeld GmbH & Co. KG, Lauda-Königshofen, Germany) and seeded in 24-well plates. IC50 values were determined by transferring 1.50 × 10^5 cells/mL per well into 24-well plates.\nDetailed information on affinity experiments is provided in the SI. In brief, competitive binding studies were determined on HEK293-hGLP-1R cells (1.50 × 10^5 cells in 1 mL/well) after incubation at 4 °C for 2 hours, using [^125I]Tyr(3-I)^40–3 (0.41 nM/well) as reference radioligand (n = 3).\nDr. Timothy J. Kieffer (University of British Columbia, Vancouver, Canada). Cells were cultivated in high glucose DMEM (25.0 mM D-glucose, 3.97 mM GlutaMAX; REF-number: 61965-026; Fisher Scientific GmbH, Schwerte, Germany) supplemented with 10% fetal bovine serum and 1 mM sodium pyruvate. Medium for stably transfected HEK293-hGLP-1R cells was constantly supplemented with 1 mg/mL Geneticin (G-418 Biochrom, Merck KgaA, Darmstadt, Germany) as selection antibiotic. The cell line was kept at 37 °C in a humidified 5% CO2 atmosphere. One day (24 ± 2 h) prior to all in vitro experiments, the cultivated cells were harvested using a mixture of trypsin/ethylenediaminetetraacetic acid (0.05%/0.02%) in phosphate-buffered saline (PBS) (Merck KgaA, Darmstadt, Germany) and centrifuged at 1300 rpm (ca. 190 × g) for 3 min at room temperature (Heraeus Megafuge 16, Thermo Fisher Scientific, Darmstadt, Germany). After centrifugation, the supernatant was disposed and the cell pellet was resuspended in culture medium. Cells were counted with a Neubauer hemocytometer (Paul Marienfeld GmbH & Co. KG, Lauda-Königshofen, Germany) and seeded in 24-well plates (Greiner Bio-One, Kremsmünster, Austria). IC50 values were determined by transferring 1.50 × 10^5 cells/mL per well into 24-well plates (Greiner Bio-One, Kremsmünster, Austria).\nThe culture medium was removed and the cells were washed with 500 µL of Hank’s balanced salt solution (HBSS) (Merck KGaA, Darmstadt, Germany), containing 1% bovine serum albumin (BSA) (Merck KGaA, Darmstadt, Germany). Afterwards, 200 µL of HBSS (1% BSA) were added to each well and equilibrated on ice (4 °C) for 15 min. 25 µL/well of either HBSS (1% BSA) (= control) or of solutions, containing the respective unlabeled ligand in increasing concentrations (10^-10 - 10^-4 M in HBSS) were added, followed by the addition of 25 µL of [Nle^14, [^125I]Tyr(3-I)^40]exendin-4 in HBSS (1% BSA) to each well. Experiments were carried out in triplicates for each concentration. The final concentrations of unlabeled ligand ranged from 10^-11 - 10^-5 M and the final radioligand concentration was 0.41 nM in all binding assays. The cells were incubated for two hours at 4 °C. Incubation was terminated by removal of the incubation medium. The cells were washed with 250 µL of HBSS (1% BSA) and the wash medium was combined with the respective supernatant. This fraction represents the amount of free radioligand. The cells were lysed by addition of 250 µL of 1 M aqueous NaOH. […]"}}, "note": "Square brackets hold non-standard residues; d marks the D form. Peptide text beside a SMILES is read from it. Bip(2'-Et-4'-OMe) = CCc1cc(OC)ccc1-c1ccc(C[C@H](N)C(=O)O)cc1; αMePhe(2-F) = C[C@](N)(Cc1ccccc1F)C(=O)O; hPhe = N[C@@H](CCc1ccccc1)C(=O)O; Aib = CC(C)(N)C(=O)O"}
{"smiles": "CCc1cc(OC)ccc1-c1ccc(C[C@H](NC(=O)[C@H](CC(=O)O)NC(=O)[C@H](CO)NC(=O)[C@@H](NC(=O)[C@](C)(Cc2ccccc2F)NC(=O)[C@@H](NC(=O)CNC(=O)[C@H](CCC(=O)O)NC(=O)C(C)(C)NC(=O)[C@@H](N)Cc2c[nH]cn2)[C@@H](C)O)[C@@H](C)O)C(=O)N[C@@H](CCc2ccccc2)C(N)=O)cc1", "note": "[Peptide 1, H-L-His-Aib-L-Glu-Gly-L-Thr-L-(α-Me)Phe(2-F)-L-Thr-L-Ser-L-Asp-L-(2’-Et, 4’-OMe)BIP-L-homoPhe-NH2, reference compound] (H-H[Aib]EGT[αMePhe(2-F)]TSD[Bip(2'-Et-4'-OMe)][hPhe]-NH2)", "values": [{"measurement": "EC50", "setting": "[1]", "result": 0.031, "unit": "nM"}, {"measurement": "IC50", "setting": "[2]", "result": "669 ± 242", "unit": "nM"}]}
